What was measured:
Klebsiella pneumoniae = experiment: Antibacterial activity against Klebsiella pneumoniae ATCC 10031 assessed as reduction in bacterial growth measured every 20 mins for 16 hrs by serial broth dilution method; assay type: functional, organism-based
Escherichia coli = experiment: Antibacterial activity against Escherichia coli BW25113 assessed as reduction in bacterial growth measured every 20 mins for 16 hrs by serial broth dilution method; assay type: functional, organism-based

SMILES	IC50 (Klebsiella pneumoniae)	IC50 (Escherichia coli)
CNc1c(F)cc(F)c2c1[nH]c1ncc(-c3ccc4ncc(C(=O)O)c(=O)n4c3)c(N(C)C)c12	< 98 nM	497 nM
CNc1cc(F)c(F)c2c1[nH]c1ncc(-c3cc(CN4CCOCC4)c4ncc(C(=O)O)c(=O)n4c3)c(N(C)C)c12	< 98 nM	523 nM
CNc1cc(F)c(F)c2c1[nH]c1ncc(-c3cc(C)c4ncc(C(=O)O)c(=O)n4c3)c(N(C)C)c12	< 98 nM	262 nM
CNc1c(F)c(F)cc2c1[nH]c1ncc(-c3ccc4ncc(C(=O)O)c(=O)n4c3)c(N(C)C)c12	< 98 nM	442 nM
CNc1cc(F)c(F)c2c1[nH]c1ncc(-c3cc(CN(C)C)c4ncc(C(=O)O)c(=O)n4c3)c(N3CCCC3)c12	< 98 nM	663 nM
CNc1cc(F)c(Cl)c2c1[nH]c1ncc(-c3ccc4ncc(C(=O)O)c(=O)n4c3)c(N(C)C)c12	< 98 nM	458 nM

From ChEMBL document CHEMBL4680365, “Novel Oxopyrido[1,2-a]pyrimidine Compounds for Treating Bacterial Infection” (ACS Med Chem Lett, 2021)
